Assay results from ChEMBL document CHEMBL4665622, “Repurposing ibuprofen to control Staphylococcus aureus biofilms” (2019).
Converted amounts (≈) assume the structure as drawn.

What was measured:
[1] = tested on: Cell membrane; test: Effect on surface tension of Staphylococcus aureus CECT 976 assessed as electron acceptor component at 0.5 times of MIC incubated for 1 hr (reference value: 0.5 +/- 0.1 mJ/m2); assay type: subcellular
[2] = tested on: Cell membrane; test: Effect on surface tension of Staphylococcus aureus CECT 976 assessed as electron acceptor component at 0.25 times of MIC incubated for 1 hr (reference value: 0.5 +/- 0.1 mJ/m2); assay type: subcellular
[3] = tested on: Cell membrane; test: Effect on surface tension of Staphylococcus aureus CECT 976 assessed as Lewis acid-base at MIC incubated for 1 hr (reference value: 10.5 +/- 1.3 mJ/m2); assay type: subcellular
[4] = tested on: Cell membrane; test: Effect on surface tension of Staphylococcus aureus CECT 976 assessed as Lewis acid-base at 0.5 times of MIC incubated for 1 hr (reference value: 10.5 +/- 1.3 mJ/m2); assay type: subcellular
[5] = tested on: Cell membrane; test: Effect on surface tension of Staphylococcus aureus CECT 976 assessed as Lewis acid-base at 0.25 times of MIC incubated for 1 hr (reference value: 10.5 +/- 1.3 mJ/m2); assay type: subcellular
[6] = tested on: Cell membrane; test: Effect on surface tension of Staphylococcus aureus CECT 976 assessed as Lifshitz-van der Waals at MIC incubated for 1 hr (reference value: 40.5 +/- 0.0 mJ/m2); assay type: subcellular
[7] = tested on: Cell membrane; test: Disruption of cytoplasmic membrane integrity in Staphylococcus aureus CECT 976 assessed as potassium ion release at MBC incubated for 1 hr by flame emission and atomic absorption spectroscopy (reference value: 0 mg/L); assay type: subcellular
[8] = tested on: Cell membrane; test: Disruption of cytoplasmic membrane integrity in Staphylococcus aureus CECT 976 assessed as potassium ion release at MIC incubated for 1 hr by flame emission and atomic absorption spectroscopy (reference value: 0 mg/L); assay type: subcellular
[9] = tested on: Cell membrane; test: Disruption of cytoplasmic membrane integrity in Staphylococcus aureus CECT 976 assessed as potassium ion release at 0.5 times of MIC incubated for 1 hr by flame emission and atomic absorption spectroscopy (reference value: 0 mg/L); assay type: subcellular
[10] = tested on: Cell membrane; test: Disruption of cytoplasmic membrane integrity in Staphylococcus aureus CECT 976 assessed as potassium ion release at 0.25 times of MIC incubated for 1 hr by flame emission and atomic absorption spectroscopy (reference value: 0 mg/L); assay type: subcellular
[11] = tested on: Cell membrane; test: Destabilization of cytoplasmic membrane integrity in Staphylococcus aureus CECT 976 at MIC incubated for 1 hr by epifluorescence microscope analysis (reference value: 10.6 %); assay type: subcellular
[12] = tested on: Cell membrane; test: Destabilization of cytoplasmic membrane integrity in Staphylococcus aureus CECT 976 at 0.5 times of MIC incubated for 1 hr by epifluorescence microscope analysis (reference value: 10.6 %); assay type: subcellular
[13] = tested on: Cell membrane; test: Destabilization of cytoplasmic membrane integrity in Staphylococcus aureus CECT 976 at 0.25 times of MIC incubated for 1 hr by epifluorescence microscope analysis (reference value: 10.6 %); assay type: subcellular
[14] = tested on: Staphylococcus aureus; test: Bactericidal activity against Staphylococcus aureus XU212 assessed as reduction in bacterial growth incubated for 24 hrs by broth microdilution method; assay type: functional
[15] = tested on: Staphylococcus aureus; test: Bactericidal activity against Staphylococcus aureus SA1199B assessed as reduction in bacterial growth incubated for 24 hrs by broth microdilution method; assay type: functional
[16] = tested on: Staphylococcus aureus; test: Bactericidal activity against Staphylococcus aureus RN4220 assessed as reduction in bacterial growth incubated for 24 hrs by broth microdilution method; assay type: functional
[17] = tested on: Staphylococcus aureus; test: Bactericidal activity against Staphylococcus aureus CECT 976 incubated for 24 hrs by broth microdilution method; assay type: functional
[18] = Antibacterial activity against Paracoccus yeei assessed as reduction in bacterial growth at pH 5 incubated for 24 hrs by broth microdilution method; assay type: functional
[19] = tested on: Staphylococcus aureus; test: Antibacterial activity against Staphylococcus aureus assessed as reduction in bacterial growth incubated for 24 hrs by broth microdilution method; assay type: functional
[20] = tested on: Staphylococcus aureus; test: Antibacterial activity against Staphylococcus aureus assessed as reduction in bacterial growth at pH 5 incubated for 24 hrs by broth microdilution method; assay type: functional
[21] = tested on: Staphylococcus aureus; test: Antibacterial activity against Staphylococcus aureus assessed as reduction in bacterial growth at pH 6 incubated for 24 hrs by broth microdilution method; assay type: functional
[22] = tested on: Staphylococcus aureus; test: Antibacterial activity against Staphylococcus aureus assessed as reduction in bacterial growth at pH 7 incubated for 24 hrs by broth microdilution method; assay type: functional
[23] = tested on: Staphylococcus aureus; test: Antibacterial activity against Staphylococcus aureus XU212 assessed as reduction in bacterial growth incubated for 24 hrs by broth microdilution method; assay type: functional
[24] = tested on: Staphylococcus aureus; test: Antibacterial activity against Staphylococcus aureus SA1199B assessed as reduction in bacterial growth incubated for 24 hrs by broth microdilution method; assay type: functional
[25] = tested on: Staphylococcus aureus; test: Antibacterial activity against Staphylococcus aureus RN4220 assessed as reduction in bacterial growth incubated for 24 hrs by broth microdilution method; assay type: functional
[26] = tested on: Staphylococcus aureus; test: Antibacterial activity against Staphylococcus aureus CECT 976 assessed as reduction in bacterial growth incubated for 24 hrs by broth microdilution method; assay type: functional
[27] = tested on: Streptococcus pneumoniae; test: Inhibition of biofilm formation in Streptococcus pneumoniae incubated for 24 hrs by crystal violet staining based assay relative to control; assay type: functional
[28] = tested on: Escherichia coli; test: Inhibition of biofilm formation in Escherichia coli incubated for 24 hrs by crystal violet staining based assay relative to control; assay type: functional
[29] = tested on: Staphylococcus aureus; test: Inhibition of cell adhesion in Staphylococcus aureus CECT 976 assessed as decrease in CFU at 5 times of MIC incubated upto 24 hrs relative to control; assay type: functional; settings: time hrs <=24
[30] = tested on: Cell membrane; test: Effect on surface tension of Staphylococcus aureus CECT 976 assessed as Lifshitz-van der Waals at 0.25 times of MIC incubated for 1 hr (reference value: 40.5 +/- 0.0 mJ/m2); assay type: subcellular
[31] = tested on: Cell membrane; test: Effect on surface tension of Staphylococcus aureus CECT 976 assessed as Lifshitz-van der Waals at 0.5 times of MIC incubated for 1 hr (reference value: 40.5 +/- 0.0 mJ/m2); assay type: subcellular

## CC(C)Cc1ccc(C(C)C(=O)O)cc1 (stereo unspecified) [IBUPROFEN]
[1]
  Activity: 1.1 mJ/m2
[2]
  Activity: 0.7 mJ/m2
[3]
  Activity: 12.5 mJ/m2
[4]
  Activity: 13.8 mJ/m2
[5]
  Activity: 11.7 mJ/m2
[6]
  Activity: 38 mJ/m2
[7]
  Activity: 0.54 mg/L
[8]
  Activity: 0.49 mg/L
[9]
  Activity: 0.51 mg/L
[10]
  Activity: 0.51 mg/L
[11]
  Activity: 97.9%
[12]
  Activity: 99.8%
[13]
  Activity: 99.1%
[14]
  MBC: 1600 µg/mL (≈ 7.76 mM)
[15]
  MBC: 1600 µg/mL (≈ 7.76 mM)
[16]
  MBC: > 2000 µg/mL
[17]
  MBC: 1400 µg/mL (≈ 6.79 mM)
[18]
  MIC: 1250 µg/mL (≈ 6.06 mM)
[19]
  MIC: 1250 µg/mL (≈ 6.06 mM)
[20]
  MIC: 40 µg/mL (≈ 0.194 mM)
[21]
  MIC: 350 µg/mL (≈ 1.7 mM)
[22]
  MIC: > 600 µg/mL
[23]
  MIC: 1600 µg/mL (≈ 7.76 mM)
[24]
  MIC: 1000 µg/mL (≈ 4.85 mM)
[25]
  MIC: 2000 µg/mL (≈ 9.7 mM)
[26]
  MIC: 500 µg/mL (≈ 2.42 mM)
[27]
  inhibition (INH): 37%
[28]
  inhibition (INH): 37%
[29]
  inhibition (INH): 100%
[30]
  Activity: 39.5 mJ/m2
[31]
  Activity: 37.3 mJ/m2
